The values that follow come from patent US20240261253A1, “DAUR[…] AND IT'S USE IN MEDICINE” (Phytotherapeutix Ltd., priority 2021, published 2024).

A short description of data set [1]: cytotoxicity (cell viability) in 16HBE cells. The format is cell-based. The following applies: human, read-out: CC50 (50% cell viability). As to the method: (§1) A dilution series of each test compound (8-point, 10-fold dose titration) was added prophylactically for one hour, to cells. Cells were infected with virus for one hour, at a single concentration (100×TCID50 (Median Tissue Culture Infectious Dose). Additional media was added to the wells, with equivalent concentrations of compound added in for the duration of the study. Vehicle and positive control wells were set up to control for any influence of the compounds alone on cell viability. Cells were visually inspected for the appearance of any cytopathic effects (CPE). A cell viability assay was performed once CPE was complete.
(§2) • EC50: The concentration which results in 50% viral inhibition, following the addition of compounds. • CC50: The concentration which results in 50% cell viability, following the addition of compounds.
(§3) • 1. Cells permissible to infection, indicated in the Conditions Table, were grown and seeded into 96-well plates to a confluency of 80-90%. • 2. The test compounds were serially diluted 10-fold into 8 concentrations in total. The serial dilution was added to the cells for 1 hour prior to infection with each virus. Positive control compounds were included using the same treatment regimen. • 3. After pre-treatment, each virus was added to the cells for 1 h at 100×TCID50. A mock infection of blank media was added to the uninfected controls. • 4. After infection, the virus/media was removed and an overlay medium was added, with equivalent concentrations of the test compounds added in. • 5. […] A cell viability assay was performed on all conditions, with cells receiving the test treatment compared to the vehicle treated and uninfected controls.

In another data set the test system is 16HBE cells. In words: cytotoxicity (cell viability) in 16HBE cells. The following applies: 5 days. The format is cell-based. As to the method:
as §1, §2, §3

For another data set, the system named is Human Coronavirus OC43. In words: inhibition of HCoV OC43 infection in H292 cells (CPE/cell viability assay). The format is cell-based, Human Coronavirus OC43 (Beta). The following applies: for efficacy against HCoV OC43: H292 cells. The protocol:
as §1
(§4) Inhibition was calculated as follows: […]
(§5) where: • A: mean optical density of test, • B: mean optical density of virus controls, • C: mean optical density of cell controls. • Negative values occur when A<B, due either to natural variation or compound toxicity.
as §2, §3

The nature of data set [2]: cytotoxicity (cell viability) in H292 cells. The format is cell-based. The following applies: human, read-out: CC50 (50% cell viability). As to the method: as §1, §2, §3
The subject of the next data set is H292 cells. In words: cytotoxicity (cell viability) in H292 cells. The format is cell-based. The following applies: 5 days. As to the method:
as §1, §2, §3

For a further data set, the system named is HIV. The following applies: cited from earlier work.
The test system of the next data set is uninfected H9 cells. The following applies: cited from earlier work.
For data set [3] the following is noted: 5 mg/kg i.p., rodents; cited from earlier work.
The test system of the next data set is Human Coronavirus 229E. In words: inhibition of HCoV 229E infection in 16HBE cells (CPE/cell viability assay). The format is cell-based, Human Coronavirus 229E (Alpha). The protocol: as §1, §4, §5, §2
• 1. Cells permissible to infection, indicated in the Conditions Table, were grown and seeded into 96-well plates to a confluency of 80-90%. • 2. The test compounds were serially diluted 10-fold into 8 concentrations in total. […]

Values after ≈ are worked out from the molar mass of the structure shown. Like-named read-outs stand apart in the source and are kept apart here.

The CC50 is the concentration at which the toxic effect on the cells reaches its halfway point. For the compound `CC(C)=CCC/C(C)=C/CCC1(C)C=Cc2c(cc(C)c(C(=O)O)c2O)O1` (racemic) [1:1 mixture of (+)-DCA with (−)-DCA, (E)-2-(4,8-dimethylnona-3,7-dien-1-yl)-5-hydroxy-2,7-dimethyl-2H-chromene-6-carboxylic acid], the figures for the cytotoxic concentration (CC50) at 5 days in [1] and in [2] were 8.2 µg/mL and 5.9 µg/mL, respectively. In addition, the “CC50 (50% cell viability)” value came out at 8.225 µg/mL in the data set on 16HBE cells and 5.938 µg/mL with H292 cells. The “efficacy against HCoV OC43” value in the data set on Human Coronavirus OC43 (listed as 1:1 mix of both) was “Efficacy was seen”.

A word on the EC50: it is the concentration needed to bring the measured effect to its halfway point. For `CC(C)=CCC/C(C)=C/CCC1(C)C=Cc2c(cc(C)c(C(=O)O)c2O)O1` (stereo in doubt) [(−)-DCA, (−)-(2S)-2-[(3E)-4,8-dimethylnona-3,7-dienyl]-5-hydroxy-2,7-dimethylchromene-6-carboxylic acid], the CC50 at 5 days in data set [1] came to 35.7 µg/mL (≈ 96.4 µM); in data set [2], 15.1 µg/mL (≈ 40.8 µM). Besides, the EC50 in the data set on Human Coronavirus OC43 (Betacoronavirus 1, OC43, NCI-H292, 120 h, read-out: EC50 (50% viral inhibition), HCoV OC43, H292 cells, 5 days) was 4.39 µg/mL. The “efficacy against HCoV OC43” value in the data set on Human Coronavirus OC43 is listed as “Efficacy was seen”. Also, the “EC50 (50% viral inhibition)” value in the data set on Human Coronavirus OC43 (HCoV OC43, H292 cells, 5 days) is 4.382 µg/mL (≈ 11.8 µM).

In the case of `CC(C)=CCC/C(C)=C/CC[C@@]1(C)C=Cc2c(cc(C)c(C(=O)O)c2O)O1` [(+)-DCA, (S,E)-2-(4,8-dimethylnona-3,7-dien-1-yl)-5-hydroxy-2,7-dimethyl-2H-chromene-6-carboxylic acid], the CC50 at 5 days stood at 20.7 µg/mL (≈ 55.9 µM) in [1] and 9.27 µg/mL (≈ 25 µM) in data set [2]. Besides, the “efficacy against HCoV OC43” value in the data set with Human Coronavirus OC43 is “Efficacy was seen”. Further, the “anti-HIV activity EC50” value with HIV (acutely infected H9 cells) is recorded as 5.67 ng/mL. The “inhibition of uninfected H9 growth EC50” value in the data set on uninfected H9 cells is 21.1 µg/mL.

Consider `CCCCCc1cc2c(c(O)c1C(=O)O)C=CC(C)(CCC=C(C)C)O2` (centres unmarked) [CBCA, 5-hydroxy-2-methyl-2-(4-methylpent-3-enyl)-7-pentylchromene-6-carboxylic acid], for which, in data set [3], the “plasma Cmax” value is “approx. 4 μg/mL” and the side effects result is “without any major side effects”.

In the case of `CCC(CC)COC(=O)[C@H](C)N[P@](=O)(OC[C@H]1O[C@@](C#N)(c2ccc3c(N)ncnn23)[C@H](O)[C@@H]1O)Oc1ccccc1` [Remdesivir, reference compound], the EC50 was 10 to 100 nM in the data set with Human Coronavirus 229E (16HBE, read-out: EC50); 0.023 µg/mL in the data set on Human Coronavirus 229E (120 h, 16HBE cells, 5 days, read-out: EC50 (50% viral inhibition)); 0.029 µg/mL with Human Coronavirus OC43 (Betacoronavirus 1, OC43, NCI-H292, 120 h, HCoV OC43, H292 cells, 5 days, read-out: EC50 (50% viral inhibition)); 10 to 100 nM in the data set with Human Coronavirus OC43 (Betacoronavirus 1, OC43, NCI-H292, HCoV OC43, read-out: EC50).

On to `CC(C)=CCC[C@@]1(C)[C@@H]2CC[C@]3(C)Oc4cc(C)c(C(=O)O)c(O)c4[C@H]1[C@H]23` [Rhododaurichromanic acid A], for which, in the data set with HIV (in vitro), the “anti-HIV activity EC50” value was 370 ng/mL.

Consider `CC(C)=CCC[C@]1(C)[C@@H]2CC[C@]3(C)Oc4cc(C)c(C(=O)O)c(O)c4[C@H]1[C@H]23` [Rhododaurichromanic acid B], for which the anti-HIV activity result in the data set on HIV (in vitro) is “no anti-HIV activity”.
